pIC50, pKi: −log10 of the molar value.
Key:
[1] = biological target: T1, metabotropic glutamate receptor 5 (Rattus norvegicus, UniProt P31424); test: FLIPR Calcium 3 fluorescence-based functional assay of intracellular calcium, mGluR5 antagonist activity; assay type: cell-based; conditions: inhibition of glutamate (EC90, ~50 uM) stimulated calcium levels, mGluR5 HEK-293 cells; read-out: mGluR5 FLIPR MP Antagonist DR IC50
T1 construct: expressed in transfected cells; host or cells: HEK-293
Procedure, shortened: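 mGluR5 HEK-293 cells (50,000/well, plated overnight) are loaded with FLIPR Calcium 3 dye for 1 h at 37 °C. Compound is added and fluorescence recorded on FLIPR. Inhibition of the glutamate-stimulated calcium signal is given as %, with IC50 from a 4-parameter logistic fit.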

[2] = biological target: T2, rat mGluR5 receptor (Rattus norvegicus, UniProt P31424); test: [3H]-MPEP binding HEK-293 cell membranes expressing a rat mGluR5 receptor; conditions: displacement of 4 nM [3H]-MPEP, HEK-293 cell membranes expressing rat mGluR5, 60 minute at room temperature; read-out: mGluR5 Ligand Binding DR Ki
T2 construct: expressed in transfected cells; host or cells: HEK-293
Procedure, shortened: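 Membranes from HEK-293 cells expressing rat mGluR5 incubated 60 min at room temperature in 50 mM Tris pH 7.5 with 4 nM [3H]-MPEP; 10 μM MPEP defines non-specific binding; filtration read-out. Single-point % inhibition at 10 μM, then Ki from IC50 via Cheng-Prusoff for actives.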

T1 sequence (P31424 21-1203): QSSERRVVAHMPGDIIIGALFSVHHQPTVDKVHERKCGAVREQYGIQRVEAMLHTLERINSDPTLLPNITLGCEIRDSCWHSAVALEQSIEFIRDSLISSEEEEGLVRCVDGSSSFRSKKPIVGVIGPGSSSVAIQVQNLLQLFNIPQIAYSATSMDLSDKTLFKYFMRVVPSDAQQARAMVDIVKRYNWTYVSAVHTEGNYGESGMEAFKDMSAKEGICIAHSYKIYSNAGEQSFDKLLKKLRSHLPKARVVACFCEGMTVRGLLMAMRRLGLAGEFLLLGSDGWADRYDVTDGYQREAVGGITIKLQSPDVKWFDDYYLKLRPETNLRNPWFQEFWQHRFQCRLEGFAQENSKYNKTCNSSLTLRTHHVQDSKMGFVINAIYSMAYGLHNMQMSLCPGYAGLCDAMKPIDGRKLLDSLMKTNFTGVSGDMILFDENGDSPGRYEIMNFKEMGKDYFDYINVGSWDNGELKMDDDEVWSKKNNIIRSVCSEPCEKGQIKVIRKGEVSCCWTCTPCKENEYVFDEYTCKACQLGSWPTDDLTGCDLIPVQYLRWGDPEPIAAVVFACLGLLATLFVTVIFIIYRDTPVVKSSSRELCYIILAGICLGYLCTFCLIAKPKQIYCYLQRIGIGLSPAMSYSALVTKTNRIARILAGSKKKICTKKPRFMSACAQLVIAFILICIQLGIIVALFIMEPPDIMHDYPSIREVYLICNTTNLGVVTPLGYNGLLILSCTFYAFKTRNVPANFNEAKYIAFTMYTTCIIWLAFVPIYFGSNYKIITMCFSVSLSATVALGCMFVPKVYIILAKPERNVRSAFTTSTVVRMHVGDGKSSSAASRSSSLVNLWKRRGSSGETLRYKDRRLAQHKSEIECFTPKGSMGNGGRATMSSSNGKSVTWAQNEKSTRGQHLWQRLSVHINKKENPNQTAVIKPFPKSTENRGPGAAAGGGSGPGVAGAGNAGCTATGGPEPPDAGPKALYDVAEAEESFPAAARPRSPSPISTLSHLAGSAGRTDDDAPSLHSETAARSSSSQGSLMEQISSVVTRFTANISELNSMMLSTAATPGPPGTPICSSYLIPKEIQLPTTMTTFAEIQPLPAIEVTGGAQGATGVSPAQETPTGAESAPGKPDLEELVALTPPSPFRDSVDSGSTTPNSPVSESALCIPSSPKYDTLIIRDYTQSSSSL
T2 sequence (P31424 21-1203): as above

Work on `CCOc1ccc(C(=O)N2CCc3ccccc3C2)cc1C#Cc1ccccn1` [Example 75, 2-[4-Ethoxy-3-(pyridin-2-ylethynyl)benzoyl]-1,2,3,4-tetrahydroisoquinoline] yielded a pIC50 [1] of 7.96 and a pKi [2] of 8.52.

In the case of `COc1ccc(C(=O)N2Cc3cccc(F)c3C2)cc1C#Cc1ccccn1` [Example 36, 4-fluoro-2-[4-methoxy-3-(pyridin-2-ylethynyl)benzoyl]isoindoline], the pIC50 [1] was 7.60 and the pKi [2] was 8.22.

`COc1ccc(C(=O)N2Cc3cnc(C)c(OC)c3C2)cc1C#Cc1ccccn1` [Example 45, 7-methoxy-2-[4-methoxy-3-(pyridin-2-ylethynyl)benzoyl]-6-methyl-2,3-dihydro-1H-pyrrolo[3,4-c]pyridine] was tested, and the pIC50 [1] was 7.46 and the pKi [2] was 7.51.

`Cc1ccc(C(=O)N2CCc3ncccc3C2)cc1C#Cc1ccccn1` [Example 85, 6-{[4-Methyl-3-(pyridin-2-ylethynyl)phenyl]carbonyl}-5,6,7,8-tetrahydro-1,6-naphthyridine] gave a pIC50 [1] of 8.22 and a pKi [2] of 8.40.

For `COc1ccc(C(=O)N2CCc3c(Cl)cccc3C2)cc1C#Cc1ccccn1` [Example 10, 5-chloro-2-[4-methoxy-3-(pyridin-2-ylethynyl)benzoyl]-1,2,3,4-tetrahydroisoquinoline], the pIC50 [1] was 7.30 and the pKi [2] was 9.00.

Work on `Cc1ccc(C(=O)N2CCc3ccc(Cl)cc3C2)cc1C#Cc1ccccn1` [Example 83, 7-chloro-2-[4-methyl-3-(pyridin-2-ylethynyl)benzoyl]-1,2,3,4-tetrahydroisoquinoline] yielded a pIC50 [1] of 7.52 and a pKi [2] of 9.52.

With `O=C(c1ccc(C(F)(F)F)c(C#Cc2ccccn2)c1)N1CCc2ncccc2C1` [Example 98, 6-{[3-(Pyridin-2-ylethynyl)-4-(trifluoromethyl)phenyl]carbonyl}-5,6,7,8-tetrahydro-1,6-naphthyridine] the pIC50 [1] was 8.15 and the pKi [2] was 8.40.

For `O=C(c1ccc(OCC2CC2)c(C#Cc2ccccn2)c1)N1CCc2ccccc2C1` [Example 79, 2-{[4-(Cyclopropylmethoxy)-3-(pyridin-2-ylethynyl)phenyl]carbonyl}-1,2,3,4-tetrahydroisoquinoline], the pIC50 [1] was 7.47 and the pKi [2] was 7.64.

`COc1ccc(C(=O)N2CCc3cc(OC)c(OC)cc3C2)cc1C#Cc1ccccn1` [Example 20, 6,7-dimethoxy-2-[4-methoxy-3-(pyridin-2-ylethynyl)benzoyl]-1,2,3,4-tetrahydroisoquinoline] gave a pIC50 [1] of 7.31 and a pKi [2] of 7.44.

`Cc1ccc(C(=O)N2CCc3[nH]ncc3C2)cc1C#Cc1ccccn1` [Example 88, 5-{[4-methyl-3-(pyridin-2-ylethynyl)phenyl]carbonyl}-4,5,6,7-tetrahydro-1H-pyrazolo[4,3-c]pyridine] was tested, and the pIC50 [1] was 8.40 and the pKi [2] was 8.22.

Work on `COc1ccc(C(=O)N2Cc3cc(Cl)c(Cl)cc3C2)cc1C#Cc1ccccn1` [Example 34, 5,6-dichloro-2-[4-methoxy-3-(pyridin-2-ylethynyl)benzoyl]isoindoline] yielded a pIC50 [1] of 5.84 and a pKi [2] of 7.77.

In the case of `Cc1ccc(C(=O)N2Cc3cccnc3C2)cc1C#Cc1ccccn1` [Example 91, 6-{[4-methyl-3-(pyridin-2-ylethynyl)phenyl]carbonyl}-6,7-dihydro-5H-pyrrolo[3,4-b]pyridine], the pIC50 [1] was 8.40 and the pKi [2] was 8.22.

Compound `O=C(c1ccc(F)c(C#Cc2ccccn2)c1)N1CCc2ccc(Cl)cc2C1` [Example 72, 7-chloro-2-[4-fluoro-3-(pyridin-2-ylethynyl)benzoyl]-1,2,3,4-tetrahydroisoquinoline] has a pIC50 [1] of 7.54 and a pKi [2] of 8.70.

`COc1ccc(C(=O)N2Cc3ccc(C)cc3C2)cc1C#Cc1ccccn1` [Example 32, 2-[4-methoxy-3-(pyridin-2-ylethynyl)benzoyl]-5-methylisoindoline] gave a pIC50 [1] of 7.38 and a pKi [2] of 8.52.

`O=C(c1ccc(Cl)c(C#Cc2ccccn2)c1)N1CCc2c(F)ccc(F)c2C1` [Example 63, 2-{[4-chloro-3-(pyridin-2-ylethynyl)phenyl]carbonyl}-5,8-difluoro-1,2,3,4-tetrahydroisoquinoline] showed a pIC50 [1] of 7.85 and a pKi [2] of 9.70.

`COc1ccc(C(=O)N2CCCc3ccccc3C2)cc1C#Cc1ccccn1` [Example 59, 2-{[4-methoxy-3-(pyridin-2-ylethynyl)phenyl]carbonyl}-2,3,4,5-tetrahydro-1H-2-benzazepine] was tested, and the pIC50 [1] was 7.54 and the pKi [2] was 7.38.

Work on `COc1ccc(C(=O)N2CCc3ccccc3C2c2ccccc2)cc1C#Cc1ccccn1` (centres unmarked) [Example 26, 2-[4-methoxy-3-(pyridin-2-ylethynyl)benzoyl]-1-phenyl-1,2,3,4-tetrahydroisoquinoline] yielded a pIC50 [1] of 6.77 and a pKi [2] of 7.24.

`O=C(c1ccc(C(F)(F)F)c(C#Cc2ccccn2)c1)N1CCc2[nH]ncc2C1` [Example 100, 5-{[3-(Pyridin-2-ylethynyl)-4-(trifluoromethyl)phenyl]carbonyl}-4,5,6,7-tetrahydro-1H-pyrazolo[4,3-c]pyridine] showed a pIC50 [1] of 8.30 and a pKi [2] of 8.40.

`COc1ccc(C(=O)N2Cc3ccc([N+](=O)[O-])cc3C2)cc1C#Cc1ccccn1` [Example 35, 2-[4-methoxy-3-(pyridin-2-ylethynyl)benzoyl]-5-nitroisoindoline] gave a pIC50 [1] of 7.21 and a pKi [2] of 7.64.

Reference: patent US20100273772A1, “Bisaryl Alkynylamides as Negative Allosteric Modulators of Metabotropic Glutamate Receptor 5 (MGLUR5)” (Wyeth LLC, priority 2009, published 2010)
